Source: ChEMBL document CHEMBL4393736, “Evaluation of α-hydroxycinnamic acids as pyruvate carboxylase inhibitors” (Bioorg Med Chem, 2019)
Active and inactive are the calls of the source. The rule behind the calls is not given here.

How the values were obtained:
Homo sapiens [1] = species on record: Homo sapiens; experiment: Inhibition of MDH (unknown origin) at 1 mM using oxaloacetate as substrate by spectrophotometric analysis
[2] = Inhibition of full length Staphylococcus aureus pyruvate carboxylase expressed in Escherichia coli BL21(DE3) assessed as formation of oxaloacetic acid using pyruvate, HCO3-, ATP and NADH as substrate by malate dehydrogenase coupled enzyme assay
[3] = Inhibition of Staphylococcus aureus pyruvate carboxylase expressed in Escherichia coli BL21(DE3) assessed as FVB-OAA adduct formation using pyruvate as substrate by Fast violet B assay
Homo sapiens [4] = species on record: Homo sapiens; experiment: Inhibition of MDH (unknown origin) at 200 uM using oxaloacetate as substrate by spectrophotometric analysis
[5] = biological target: L-lactate dehydrogenase (Homo sapiens) (UniProt V9HWB9); experiment: Substrate activity at lactate dehydrogenase (unknown origin) at 2 mM in presence of NADH
[6] = biological target: 72 kDa type IV collagenase (Homo sapiens) (UniProt P08253); experiment: Inhibition of human matrix metalloprotease 2 at 50 uM treated with enzyme for 30 mins prior to substrate addition using omniMMP fluorogenic substrate measured for 30 mins by fluorescence based assay
Sequence of 72 kDa type IV collagenase (Homo sapiens) (P08253 110-660 limits assumed): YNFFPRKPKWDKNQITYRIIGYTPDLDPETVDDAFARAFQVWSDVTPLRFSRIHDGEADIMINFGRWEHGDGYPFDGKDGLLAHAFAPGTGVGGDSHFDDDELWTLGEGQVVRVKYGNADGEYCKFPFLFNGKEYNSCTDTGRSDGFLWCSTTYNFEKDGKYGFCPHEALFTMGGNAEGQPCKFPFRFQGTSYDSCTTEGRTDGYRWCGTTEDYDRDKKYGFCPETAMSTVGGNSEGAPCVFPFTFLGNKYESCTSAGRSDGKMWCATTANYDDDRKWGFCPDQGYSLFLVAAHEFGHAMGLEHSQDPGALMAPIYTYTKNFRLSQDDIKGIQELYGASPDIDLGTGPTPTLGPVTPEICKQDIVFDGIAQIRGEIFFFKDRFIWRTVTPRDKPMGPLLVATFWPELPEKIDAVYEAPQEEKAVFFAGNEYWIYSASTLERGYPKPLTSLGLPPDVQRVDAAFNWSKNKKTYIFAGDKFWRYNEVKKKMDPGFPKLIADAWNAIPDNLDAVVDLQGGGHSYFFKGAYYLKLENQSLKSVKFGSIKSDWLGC

[7] = biological target: Carbonic anhydrase 2 (Homo sapiens) (UniProt P00918); experiment: Increase in human carbonic anhydrase 2 activity at 200 uM treated with enzyme for 10 mins prior to substrate addition using p-nitrophenyl acetate as substrate measured for 20 mins
Staphylococcus aureus [8] = experiment: Non-competitive inhibition of Staphylococcus aureus pyruvate carboxylase expressed in Escherichia coli BL21(DE3) treated with ATP as substrate prior to HCO3-, ATP and NADH addition by Michelis-Menten based double-reciprocal plot analysis
Staphylococcus aureus [9] = experiment: (§1) Competitive inhibition of Staphylococcus aureus pyruvate carboxylase expressed in Escherichia coli BL21(DE3) treated with pyruvate as substrate prior to HCO3-, ATP and NADH addition by Michelis-Menten based double-reciprocal plot analysis
[10] = biological target: Carbonic anhydrase 2 (Homo sapiens) (UniProt P00918); experiment: Inhibition of human carbonic anhydrase 2 at 200 uM treated with enzyme for 10 mins prior to substrate addition using p-nitrophenyl acetate as substrate measured for 20 mins
[11] = Mixed-type of inhibition of Staphylococcus aureus pyruvate carboxylase expressed in Escherichia coli BL21(DE3) treated with ATP as substrate prior to HCO3-, ATP and NADH addition by Michelis-Menten based double-reciprocal plot analysis
[12] = biological target: L-lactate dehydrogenase (Homo sapiens) (UniProt V9HWB9); experiment: Inhibition of lactate dehydrogenase (unknown origin) at 2 mM using pyruvate as substrate in presence of NADH
[13] = as §1

Compound | inhibition (Homo sapiens [1]) | IC50 [2] | IC50 [3] | also measured
Cc1cccc(/C=C(\O)C(=O)O)c1 | 74% | 23 µM | 360 µM | inhibition (Homo sapiens [4]): 13%
O=C(O)C(=O)c1ccccc1 [BENZOYL FORMIC ACID] | – | – | > 3000 µM | –
O=C(O)/C(O)=C/c1ccccc1 | 78% | 130 µM | 240 µM | inhibition (Homo sapiens [4]): 0%
O=C(O)/C(O)=C/c1ccc(Cl)cc1 | 12% | 220 µM | 280 µM | inhibition (Homo sapiens [4]): 2%
O=C(O)C(=O)Cc1ccccc1Br | – | > 1000 µM | > 1000 µM | –
O=C(O)C(=O)Cc1ccccc1[N+](=O)[O-] | – | > 2000 µM | > 2000 µM | –
C=CCCC(=O)C(=O)O | – | – | > 2000 µM | –
O=C(O)C(O)Cc1ccccc1 (centres undefined) | – | – | > 3000 µM | –
Cc1ccc(/C=C(\O)C(=O)O)cc1 | 10% | 140 µM | 210 µM | inhibition (Staphylococcus aureus [8]): Active; inhibition (Homo sapiens [4]): -3%; inhibition (Staphylococcus aureus [9]): Active
O=C(O)C(=O)CC1CCCCC1 | – | – | > 1000 µM | –
O=C(O)C(=O)O | – | – | – | inhibition (Staphylococcus aureus [8]): Active; inhibition (Staphylococcus aureus [9]): Active
O=C(O)/C(O)=C/c1ccc([N+](=O)[O-])cc1 | – | > 1000 µM | > 1000 µM | –
O=C(O)C(=O)CCc1ccccc1 | – | – | > 2000 µM | –

Continued, in another order:

inhibition (Homo sapiens [1]) | IC50 [2] | IC50 [3] | Compound | also measured
– | 38 µM | 98 µM | Cc1ccc(/C=C(\O)C(=O)O)cc1C | inhibition (Homo sapiens [4]): 3%
9% | 22 µM | 67 µM | O=C(O)/C(O)=C/c1ccc(O)cc1 | Activity [5]: Active
– | 96 µM | 130 µM | O=C(O)/C(O)=C/c1ccc(C(F)(F)F)cc1 | –
– | 56 µM | 170 µM | COc1ccc(/C=C(\O)C(=O)O)cc1 | –
– | 11 µM | 3 µM | O=C(O)/C(O)=C/c1ccc(/C=C(\O)C(=O)O)cc1 | inhibition [6]: Active; Activity [7]: Active
– | – | 58.6 µM | O=C(O)/C=C/c1ccc(/C=C(\O)C(=O)O)cc1 | inhibition [6]: Active; Activity [7]: Active
78% | 30 µM | 100 µM | O=C(O)/C(O)=C/c1ccc(F)cc1 | inhibition (Homo sapiens [4]): 23%
4% | 3.2 µM | 4.3 µM | O=C(O)/C(O)=C/c1ccc2ccccc2n1 | inhibition [10]: inactive; Ki [11]: 5.2 to 7.1 µM; inhibition [6]: inactive; Activity [5]: inactive; inhibition [12]: inactive; Ki [13]: 0.74 µM
– | – | 118 µM | O=C(O)/C=C/c1cccc(/C=C(\O)C(=O)O)c1 | –
– | – | 48 µM | O=C(O)/C(O)=C/c1ccc(-c2ccsc2)cc1 | inhibition [6]: Active
9% | 81 µM | 200 µM | O=C(O)/C(O)=C/c1ccc(Br)cc1 | inhibition (Homo sapiens [4]): 0%
